Measured values from patent US20210269440A1 (BETTA PHARMACEUTICALS CO., LTD, priority 2018, published 2021).

Each compound was assayed against T1, PD-1/PD-L1 protein/protein interaction (Homo sapiens, UniProt Q9NZQ7) (assay: PD-1/PD-L1 homogenous time-resolved fluorescence (HTRF) binding assay). Details: not given.
T1 construct: Recombinant human PD-L1 protein (19-238) with a His-tag at the C-terminus; purchased AcroBiosystems PD1-H5229 (PD-L1); PD1-H5257 (PD-1)
Protocol: Resolved Fluorescence (HTRF) Binding Assay
The assays were conducted in a standard black 384-well polystyrene plate with a final volume of […]. Inhibitors were first serially diluted in DMSO and then added to the plate wells before the addition of other reaction components. The final concentration of DMSO in the assay was 1%. The assays were carried out at 25° C. in the PBS buffer (pH 7.4) with 0.05% Tween-20 and 0.1% BSA. […] Plates were centrifuged and proteins were preincubated with inhibitors for 40 min. The incubation was followed by the addition of 10 μL of HTRF detection buffer supplemented with Europium cryptate-labeled anti-human IgG (PerkinElmer-AD0212) specific for Fc and anti-His antibody conjugated to SureLight®—Allophycocyanin (APC, PerkinElmer-AD0059H). After centrifugation, the plate was incubated at 25° C. for 60 min. […] Final concentrations in the assay were […] PD1, 10 nM PD-L1, 1 nM europium anti-human IgG and 20 nM anti-His-Allophycocyanin. IC50 determination was performed by fitting the curve of percent control activity versus the log of the inhibitor concentration using the GraphPad Prism 5.0 software.

T1 sequence (Q9NZQ7 19-238): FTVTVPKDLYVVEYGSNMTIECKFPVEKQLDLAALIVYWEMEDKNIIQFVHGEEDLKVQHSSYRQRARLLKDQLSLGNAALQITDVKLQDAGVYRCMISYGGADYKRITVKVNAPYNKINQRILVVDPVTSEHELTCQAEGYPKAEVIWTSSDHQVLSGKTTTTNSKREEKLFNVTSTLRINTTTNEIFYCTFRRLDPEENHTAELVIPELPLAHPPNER

| SMILES | IC50 [nM] |
| --- | --- |
| Cc1c(Nc2nccc3cc(CN4CCCCC4C(=O)O)cnc23)cccc1-c1cccc(OCCCN2CCOCC2)c1C (stereo not drawn) [Compound 5] | 3.3 |
| Cc1c(Nc2nccc3cc(CN(C)CC(=O)O)cnc23)cccc1-c1cccc(OCCCN2CCOCC2)c1C [Compound 11, N-((8-((2,2′-dimethyl-3′-(3-morpholinopropoxy)-[1,1′-biphenyl]-3-yl)amino)-1,7-naphthyridin-3-yl)methyl)-N-methylglycine] | 2 to 10 |
| Cc1c(Nc2nccc3cc(CN4CC(F)(F)CC4C(=O)O)cnc23)cccc1-c1cccc(OCCCN2CCOCC2)c1C (stereo not drawn) [Compound 12, 1-((8-((2,2′-dimethyl-3′-(3-morpholinopropoxy)-[1,1′-biphenyl]-3-yl)amino)-1,7-naphthyridin-3-yl)methyl)-4,4-difluoropyrrolidine-2-carboxylic acid] | 10 to 150 |
| Cc1c(Nc2nccc3cc(CNC(C)(CO)C(=O)O)cnc23)cccc1-c1cccc(OCCCN2CCOCC2)c1C (stereo not drawn) [Compound 13, 2-(((8-((2,2′-dimethyl-3′-(3-morpholinopropoxy)-[1,1′-biphenyl]-3-yl)amino)-1,7-naphthyridin-3-yl)methyl)amino)-3-hydroxy-2-methylpropanoic acid] | < 2 |
| CCN(CC(=O)O)Cc1cnc2c(Nc3cccc(-c4cccc(OCCCN5CCOCC5)c4C)c3C)nccc2c1 [Compound 14, N-((8-((2,2′-dimethyl-3′-(3-morpholinopropoxy)-[1,1′-biphenyl]-3-yl)amino)-1,7-naphthyridin-3-yl)methyl)-N-ethylglycine] | < 2 |
| Cc1c(Nc2nccc3cc(CN4CC(C(=O)O)C4)cnc23)cccc1-c1cccc(OCCCN2CCOCC2)c1C [Compound 15, 1-((8-((2,2′-dimethyl-3′-(3-morpholinopropoxy)-[1,1′-biphenyl]-3-yl)amino)-1,7-naphthyridin-3-yl)methyl)azetidine-3-carboxylic acid] | < 2 |

The remaining lines, values ahead:

| IC50 [nM] | SMILES |
| --- | --- |
| < 2 | Cc1c(Nc2nccc3cc(CN4CCCCC4C(=O)O)cnc23)cccc1-c1cccc(OCCCN2CCCCC2)c1C (stereo not drawn) [Compound 16, 1-((8-((2,2′-dimethyl-3′-(3-(piperidin-1-yl)propoxy)-[1,1′-biphenyl]-3-yl)amino)-1,7-naphthyridin-3-yl)methyl)piperidine-2-carboxylic acid] |
| 2 to 10 | Cc1c(Nc2nccc3cc(CN4CCCCC4C(=O)O)cnc23)cccc1-c1cccc(OCCCN2CCN(C)CC2)c1C (stereo not drawn) [Compound 17, 1-((8-((2,2′-dimethyl-3′-(3-(4-methylpiperazin-1-yl)propoxy)-[1,1′-biphenyl]-3-yl)amino)-1,7-naphthyridin-3-yl)methyl)piperidine-2-carboxylic acid] |
| < 2 | Cc1c(Nc2nccc3cc(CN4CCCCC4C(=O)O)cnc23)cccc1-c1cccc(OCCCN2CCCC2)c1C (stereo not drawn) [Compound 18, 1-((8-((2,2′-dimethyl-3′-(3-(pyrrolidin-1-yl)propoxy)-[1,1′-biphenyl]-3-yl)amino)-1,7-naphthyridin-3-yl)methyl)piperidine-2-carboxylic acid] |
| < 2 | Cc1c(Nc2nccc3cc(CN4CCCCC4C(=O)O)cnc23)cccc1-c1cccc(OCCCN2CCC(O)C2)c1C (stereo not drawn) [Compound 19, 1-((8-((3′-(3-(3-hydroxypyrrolidin-1-yl)propoxy)-2,2′-dimethyl-[1,1′-biphenyl]-3-yl)amino)-1,7-naphthyridin-3-yl)methyl)piperidine-2-carboxylic acid] |
| > 150 | Cc1c(Nc2nccc3cc(CN4CCCCC4C(=O)O)cnc23)cccc1-c1cccc2c1CCN2CCCN1CCOCC1 (stereo not drawn) [Compound 20, 1-((8-((2-methyl-3-(1-(3-morpholinopropyl)indolin-4-yl)phenyl)amino)-1,7-naphthyridin-3-yl)methyl)piperidine-2-carboxylic acid] |
| < 2 | CCN(CC)CCCOc1cccc(-c2cccc(Nc3nccc4cc(CN5CCCCC5C(=O)O)cnc34)c2C)c1C (stereo not drawn) [Compound 21, 1-((8-((3′-(3-(diethylamino)propoxy)-2,2′-dimethyl-[1,1′-biphenyl]-3-yl)amino)-1,7-naphthyridin-3-yl)methyl)piperidine-2-carboxylic acid] |
| 2 to 10 | Cc1c(Nc2nccc3cc(CN4CCCCC4C(=O)O)cnc23)cccc1-c1cccc(OCCCN(C)Cc2ccccc2)c1C (stereo not drawn) [Compound 22, 1-((8-((3′-(3-(benzyl(methyl)amino)propoxy)-2,2′-dimethyl-[1,1′-biphenyl]-3-yl)amino)-1,7-naphthyridin-3-yl)methyl)piperidine-2-carboxylic acid] |
| < 2 | CCNCCCOc1cccc(-c2cccc(Nc3nccc4cc(CN5CCCCC5C(=O)O)cnc34)c2C)c1C (stereo not drawn) [Compound 23, 1-((8-((3′-(3-(ethylamino)propoxy)-2,2′-dimethyl-[1,1′-biphenyl]-3-yl)amino)-1,7-naphthyridin-3-yl)methyl)piperidine-2-carboxylic acid] |
| > 150 | CC(=O)NCCCOc1cccc(-c2cccc(Nc3nccc4cc(CN5CCCCC5C(=O)O)cnc34)c2C)c1C (stereo not drawn) [Compound 24, 1-((8-((3′-(3-acetamidopropoxy)-2,2′-dimethyl-[1,1′-biphenyl]-3-yl)amino)-1,7-naphthyridin-3-yl)methyl)piperidine-2-carboxylic acid] |
| > 150 | Cc1c(Nc2nccc3cc(CN4CCCCC4C(=O)O)cnc23)cccc1-c1cccc(OCCCNC(N)=O)c1C (stereo not drawn) [Compound 25, 1-((8-((2,2′-dimethyl-3′-(3-ureidopropoxy)-[1,1′-biphenyl]-3-yl)amino)-1,7-naphthyridin-3-yl)methyl)piperidine-2-carboxylic acid] |
| > 150 | Cc1c(Nc2nccc3cc(CN4CCCCC4C(=O)O)cnc23)cccc1-c1cccc(OCCCNC(=N)N)c1C (stereo not drawn) [Compound 26, 1-((8-((3′-(3-guanidinopropoxy)-2,2′-dimethyl-[1,1′-biphenyl]-3-yl)amino)-1,7-naphthyridin-3-yl)methyl)piperidine-2-carboxylic acid] |
| > 150 | Cc1c(Nc2nccc3cc(CN4CCCCC4C(=O)O)cnc23)cccc1-c1cccc(OCCCNS(C)(=O)=O)c1C (stereo not drawn) [Compound 27, 1-((8-((2,2′-dimethyl-3′-(3-(methylsulfonamido)propoxy)-[1,1′-biphenyl]-3-yl)amino)-1,7-naphthyridin-3-yl)methyl)piperidine-2-carboxylic acid] |

Same assay, conditions: HTRF, recombinant human PD-1 (Fc tag) / PD-L1 (His-tag), 25° C., PBS pH 7.4; read-out: IC50

| IC50 [nM] | SMILES |
| --- | --- |
| 0.43 | Cc1c(Nc2nccc3cc(CNCC(=O)O)cnc23)cccc1-c1cccc(OCCCN2CCOCC2)c1C [Compound 1, ((8-((2,2′-dimethyl-3′-(3-morpholinopropoxy)-[1,1′-biphenyl]-3-yl)amino)-1,7-naphthyridin-3-yl)methyl)glycine] |
| 3 | Cc1c(Nc2nccc3cc(CNCC(=O)O)cnc23)cccc1-c1ccccc1 [Compound 2, ((8-((2-methyl-[1,1′-biphenyl]-3-yl)amino)-1,7-naphthyridin-3-yl)methyl)glycine] |
| 2 | Cc1c(Nc2nccc3cc(CN4CCC[C@H]4C(=O)O)cnc23)cccc1-c1cccc(OCCCN2CCOCC2)c1C [Compound 3, ((8-((2,2′-dimethyl-3′-(3-morpholinopropoxy)-[1,1′-biphenyl]-3-yl)amino)-1,7-naphthyridin-3-yl)methyl)proline] |
| 13 | Cc1c(Nc2nccc3cc(CN4CCC[C@H]4C(=O)O)cnc23)cccc1-c1ccccc1 [Compound 4, ((8-((2-methyl-[1,1′-biphenyl]-3-yl)amino)-1,7-naphthyridin-3-yl)methyl)proline] |
| 2.8 | Cc1c(Nc2nccc3cc(CN4CC(O)CC4C(=O)O)cnc23)cccc1-c1cccc(OCCCN2CCOCC2)c1C (stereo not drawn) [Compound 6, 1-((8-((2,2′-dimethyl-3′-(3-morpholinopropoxy)-[1,1′-biphenyl]-3-yl)amino)-1,7-naphthyridin-3-yl)methyl)-4-hydroxypyrrolidine-2-carboxylic acid] |
| 0.4 | Cc1c(Nc2nccc3cc(CNCCC(=O)O)cnc23)cccc1-c1cccc(OCCCN2CCOCC2)c1C [Compound 7, 3-(((8-((2,2′-dimethyl-3′-(3-morpholinopropoxy)-[1,1′-biphenyl]-3-yl)amino)-1,7-naphthyridin-3-yl)methyl)amino)propanoic acid] |
| 0.9 | Cc1c(Nc2nccc3cc(CNCCCC(=O)O)cnc23)cccc1-c1cccc(OCCCN2CCOCC2)c1C [Compound 8, 4-(((8-((2,2′-dimethyl-3′-(3-morpholinopropoxy)-[1,1′-biphenyl]-3-yl)amino)-1,7-naphthyridin-3-yl)methyl)amino)butanoic acid] |
| 1.2 | Cc1c(Nc2nccc3cc(CN4CCC(C(=O)O)C4)cnc23)cccc1-c1cccc(OCCCN2CCOCC2)c1C (stereo not drawn) [Compound 9, 1-((8-((2,2′-dimethyl-3′-(3-morpholinopropoxy)-[1,1′-biphenyl]-3-yl)amino)-1,7-naphthyridin-3-yl)methyl)pyrrolidine-3-carboxylic acid] |
| 0.5 | Cc1c(Nc2nccc3cc(CN[C@@H](CO)C(=O)O)cnc23)cccc1-c1cccc(OCCCN2CCOCC2)c1C [Compound 10, ((8-((2,2′-dimethyl-3′-(3-morpholinopropoxy)-[1,1′-biphenyl]-3-yl)amino)-1,7-naphthyridin-3-yl)methyl)serine] |

Same assay, conditions: R is the group comprising morpholine

| biological activity (potency), as shown in Table 1 | SMILES |
| --- | --- |
| much more potent | Cc1c(Nc2nccc3cc(CNCC(=O)O)cnc23)cccc1-c1cccc(OCCCN2CCOCC2)c1C [Compound 1, ((8-((2,2′-dimethyl-3′-(3-morpholinopropoxy)-[1,1′-biphenyl]-3-yl)amino)-1,7-naphthyridin-3-yl)methyl)glycine] |
| much more potent | Cc1c(Nc2nccc3cc(CN4CCC[C@H]4C(=O)O)cnc23)cccc1-c1cccc(OCCCN2CCOCC2)c1C [Compound 3, ((8-((2,2′-dimethyl-3′-(3-morpholinopropoxy)-[1,1′-biphenyl]-3-yl)amino)-1,7-naphthyridin-3-yl)methyl)proline] |
| much more potent | Cc1c(Nc2nccc3cc(CN4CCCCC4C(=O)O)cnc23)cccc1-c1cccc(OCCCN2CCOCC2)c1C (stereo not drawn) [Compound 5] |
